Assay results reported in publication PMC8536682, “NPF activates a specific NPF receptor and regulates food intake in Pacific abalone Haliotis discus hannai” (Scientific Reports, 2021).
No end group written: not given here.

Columns and labels:
Hdh-NPFR [1] = experiment: Western blot of ERK1/2 phosphorylation in Hdh-NPFR-expressing HEK293 cells; format: cell-based, Haliotis discus hannai; details: inhibitor 10^–5 M pre-incubated 1 h, then Hdh-NPF (10^–8, 10^–6 M) 5 min; Fig. 3f
Procedure: HEK293 cells were seeded into 6-well plates (0.3 × 10^6 cells/well) and transfected with 3 μg of pcDNA3-HA-Hdh-NPFR or pcDNA3 as described for the reporter assays. At 36 h post-transfection, the transfected cells were treated with Hdh-NPF (10^–9–10^–7 M), TPA (10^–7 M), or the same volume of peptide-free medium as a vehicle for 10 min. After washing twice with PBS, the cells were lysed with RIPA buffer [150 mM NaCl, 1% Triton X-100, 0.5% sodium deoxycholate, 0.1% sodium dodecyl sulfate (SDS), 50 mM Tris–Cl, pH 8.0] including protease inhibitor cocktail and PhosSTOP (Roche, Basel, Switzerland) according to the manufacturer’s recommendation. To examine signaling pathways, Hdh-NPFR-transfected cells were pre-incubated with serum-free DMEM for 6 h at 37 °C and exposed to a PKA inhibitor (H89, 10^–5 M; Sigma-Aldrich) or PKC inhibitor (Gӧ6983, 10^–5 M; Sigma-Aldrich) for a further 60 min. After replacing the medium with fresh serum-free DMEM, the cells were exposed to Hdh-NPF peptide (10^–8, 10^–6 M) for 5 min at 37 °C. The cell lysates were separated by 10% SDS–polyacrylamide gel electrophoresis and subsequently transferred to nitrocellulose membranes (Pall, Ann Arbor, MI, USA). […] The reactive bands were monitored using C-Digit 3600 Bolt Scanner (LI-COR, Lincoln, NE, USA).

Hdh-NPFR [2] = experiment: Ca2+ mobilization (aequorin luminescence) assay in Hdh-NPFR-transfected CHO-K1 cells; format: cell-based, Haliotis discus hannai; details: Fig. 3g, Fig. S7b
Procedure: CHO-K1 cells were maintained in DMEM-F12 Nutrient Mixture Ham supplemented with 10% FBS (Welgene) at 37 °C in 5% CO2. Cells grown in a monolayer to 60% confluency in 100 mm dishes (1.5 × 10^6 cells) were transiently transfected with plasmids using FuGENE6 transfection reagent (Promega), according to the manufacturer’s recommendations. In brief, the transfection medium was prepared by combining 600 μl of DMEM-F12 with 2 μg of pcDNA3-HA-Hdh-NPFR plasmid together with 2 μg of a Ca^2+ reporter aequorin plasmid with or without the promiscuous Gα15 expression plasmid (kind gifts from Dr. Young-Joon Kim, Gwangju Institute of Science and Technology, Gwangju, Korea) with 18 μl of FuGENE6 in a 5 ml polystyrene tube and incubated for 25 min at room temperature. The transfection mixture was added to CHO-K1 cells in 10 ml of fresh FBS-free medium and the cells were incubated at 37 °C in 5% CO2 overnight. On the day of the assay, the cells were detached from the culture dish by incubating with 3 ml of 5 mM EDTA in phosphate-buffered saline (PBS, pH 7.2; Thermo Fisher Scientific, Waltham, MA, USA) for 5 min. The cells were washed in 10 ml of phenol red-free DMEM/F-12 with 0.1% bovine serum albumin (BSA) and 1% P/S (DMEM-prf), and collected by brief centrifugation. Probenecid (1.25 mM final concentration, Invitrogen) and coelenterazine (5 μM, Gold Biotech., St. Louis, MO, USA) were added to resuspended CHO-K1 cells in 5 ml of DMEM-prf medium and the cells were gently agitated for 2.5 h using a magnetic stirrer at room temperature shielded from light. The cell suspension was diluted four times with DMEM-prf and incubated for a further 30 min. Just before the Ca^2+ mobilization assay, peptide solutions were prepared in DMEM-prf and 50 μl aliquots were dispensed into 3 or 4 wells/peptide on 96-well microplates. DMEM-prf was used as a negative control. While stirring gently, 50 μl of the cell suspension was injected into a luminescence microplate reader (Berthold Tech.) using an automated injector unit. Luminescence was recorded for 20 s and for a further 10 s after injection of DMEM-prf including 0.2% Triton X-100 to measure the total Ca^2+ response. The average luminescence from multiple replicate wells for a single concentration was calculated and normalized to the largest receptor response after subtraction of background values obtained from negative controls. Dose–response curves and EC50 values were obtained using Sigma Plot v.13 (Systat Software, Inc., San Jose, CA, USA).

[3] = tested on: pcDNA3-transfected HEK293 cells; experiment: CRE-Luc luciferase reporter assay in pcDNA3-transfected HEK293 cells; format: cell-based, human; details: pcDNA3-transfected HEK293 cells (no receptor); Fig. 3d
Procedure: HEK293 cells were cultured in Dulbecco’s modified Eagle medium (DMEM; Gibco, Loughborough, UK) containing 1% penicillin/streptomycin (P/S; Invitrogen) and 10% fetal bovine serum (FBS; Hyclone, GE Healthcare, Chicago, IL, USA). Sixteen hours before transfection, cultured HEK293 cells were seeded into 24-well plates (5 × 10^4 cells/well). The cells were transfected with a luciferase reporter plasmid of CRE-Luc[68] or SRE-Luc[69] using a polyethyleneimine transfection reagent (Sigma-Aldrich, St. Louis, MO, USA), along with pcDNA3-HA plasmids containing Hdh-NPFR-related receptors, human NPYR1 and NPYR2 (kindly provided by Dr. Annette G. Beck-Sickinger, Leipzig University, Germany), and a pRSV-β-galactosidase expression plasmid as an internal control (100 ng of each plasmid/well) as previously reported. After 3 h of transfection, the culture medium was replaced by new DMEM with 1% P/S and 10% FBS, and the HEK293 cells were further cultured for 30 h and then maintained in DMEM without FBS for 16 h. […] The cells were lysed with a luciferase cell culture lysis buffer (Promega, Madison, WI, USA) and luciferase activities were analyzed using a microplate-luminometer (Berthold Tech., Bad Wildbad, Germany) and normalized by the β-galactosidase values detected by an absorbance microplate reader (Tecan, Mannedorf, Switzerland) at 405 nm.

Compound: COc1ccc2c(c1)c(C1=C(c3c[nH]c4ccccc34)C(=O)NC1=O)cn2CCCN(C)C [Gӧ6983]
- Effect of inhibitor on Hdh-NPFR-mediated activation of ERK1/2 (Hdh-NPFR [1]): abolished

Compound: QDAMLAPPDRPSEFRSPD-NH2 [Hdh-NPF-N18, truncated Hdh-NPF peptide]
- Ca2+ mobilization response (Hdh-NPFR [2]): could not induce

Compound: QDAMLAPPDRPSEFRSPDQLRQYLKALNEYYAIVGRPRF-NH2 [Hdh-NPF]
- EC50 [3]: 596 nM

Compound: QLRQYLKALNEYYAIVGRPRF-NH2 [Hdh-NPF-C21, truncated Hdh-NPF peptide]
- Ca2+ mobilization response (Hdh-NPFR [2]): could not induce

Compound: YAIVGRPRF-NH2 [Hdh-NPF-C9, truncated Hdh-NPF peptide]
- Ca2+ mobilization response (Hdh-NPFR [2]): could not induce

Compound: YPSKPDNPGEDAPAEQLRQYLKALNEYYAIVGRPRF-NH2 [NPY-F, chimeric mixed peptide for Hdh-NPF and human NPY]
- Ca2+ mobilization response (Hdh-NPFR [2]): could not activate
